# Results as given in US20250101488A1, “RAPID DIAGNOSTIC DRY REAGENT TEST FOR ANTIBIOTIC RESISTANCE, AND METHODS OF USE AND METHODS OF MAKING THEREOF” (BioAmp Diagnostics, Inc., priority 2022, published 2025).
# Entries after “also recorded” stand apart in the source; their conditions may differ. Where two headings read alike, the source gives them in different places.
# Columns and labels:
# [1] = cited from earlier work
# [2] = Aqueous stability: non-selective hydrolysis of the probe, k(hydro); format: physicochemical; conditions: for Stability k(hydro): rate of non-selective hydrolysis of the probe and turn on of the DETECT system in the absence of its biomarker target
# Procedure: In order to find use in rapid diagnostic tests, ESBL-targeting probes that had at least the following favorable criteria were evaluated: • 1. Aqueous stability—measured through non-selective hydrolysis • a. Favorable criteria: k(hydro)<0.0062 mM/min • 2. Activity towards target β-lactamase target CTX-M-15—measured using recombinant β-lactamase • a. Favorable criteria: k(β-lactamase)>0.0568 mM/min • 3. Activity towards off-target lower generation β-lactamase (prioritizing the most common, TEM-1b) • a. Favorable criteria: k(TEM-1b)<0.02135 mM/min
# [3] = tested on: cefotaxime (CTX) non-susceptible Gram-negative bacteria (GNB); experiment: DETECT assay with 96-bacterial isolate panel, ROC curve analysis against cefotaxime (CTX) phenotype; format: cell-based; conditions: 2.5×10^6 CFU/mL, DETECT score A405 nm 30 min minus 0 min; for Sensitivity (ROC Curve Analyzed with CTX): 96-bacterial isolate panel (47 CTX susceptible, 49 CTX non-susceptible); for AUC (95% CI) (ROC Curve Analyzed with CTX) / Specificity (ROC Curve Analyzed with CTX): 96-bacterial isolate panel
# Source text: A pool of 5 probe hits were each evaluated using a 96-bacterial isolate panel. In these studies, the 96-bacterial isolate panel was comprised of 47 cefotaxime (CTX) susceptible and 49 CTX non-susceptible, Gram-negative bacteria (GNB). As described above, CTX is a surrogate to detect ceftriaxone susceptibility and, therefore, was applied as the reference phenotype to group true positive, CTX-non-susceptible (include both CTX resistant and intermediate), and true negative, CTX-susceptible. Whole cell suspensions were prepared to yield an experimental concentration of 2.5×10^6 CFU/mL. In a 96-well plate, wells were prepared with all DETECT reagents, except for the targeting probe under investigation. Bacterial suspensions were transferred to the prepared wells of the plate and an initial timepoint was recorded (0 minutes) upon addition of a stock solution of a given probe (Sub-1, (7R)-7-(2-(1H-tetrazol-1-yl)acetamido)-8-oxo-3-((phenylthio)methyl)-5-thia-1-azabicyclo[4.2.0]oct-2-ene-2-carboxylic acid (BAD-5835), (7R)-7-(3-methylisoxazole-5-carboxamido)-8-oxo-3-((phenylthio)methyl)-5-thia-1-azabicyclo[4.2.0]oct-2-ene-2-carboxylic acid (BAD-1468), (7R)-8-oxo-3-((phenylthio)methyl)-7-(2-(pyridin-3-yl)acetamido)-5-thia-1-azabicyclo[4.2.0]oct-2-ene-2-carboxylic acid (BAD-5627), and (7R)-8-oxo-3-((phenylthio)methyl)-7-((S)-piperidine-3-carboxamido)-5-thia-1-azabicyclo[4.2.0]oct-2-ene-2-carboxylic acid (BAD-3462), (7R)-8-oxo-7-(2-phenoxyacetamido)-3-((phenylthio)methyl)-5-thia-1-azabicyclo[4.2.0]oct-2-ene-2-carboxylic acid (BAD-7465)). The absorbance of the wells was collected at 405 nm at 0 and 30 minutes, using a simple benchtop plate reader. The “DETECT Score” values were then calculated for each sample by subtracting the 405 nm absorbance recorded at the 0-minute timepoint from the 30-minute timepoint. Therefore, each sample was identified to have a unique DETECT score that was then can be group into positive and negative phenotype subgroups for threshold value determination via ROC curve analysis.
# papain = target: T1, papain (Carica papaya, UniProt P00784); experiment: Dry reagent test strip, Study 1: papain activation by cysteine, reflectance; conditions: coating and drying at 37° C.; judged by reflectance of control strip
# T1 sequence (P00784 134-345): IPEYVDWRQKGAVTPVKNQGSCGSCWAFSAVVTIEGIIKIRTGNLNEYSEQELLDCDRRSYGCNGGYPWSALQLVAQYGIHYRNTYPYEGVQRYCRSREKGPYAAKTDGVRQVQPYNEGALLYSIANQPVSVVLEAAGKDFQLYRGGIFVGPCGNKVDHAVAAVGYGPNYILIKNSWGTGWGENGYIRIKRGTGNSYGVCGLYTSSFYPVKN
# Procedure: The second coating consisted of adding the water-soluble components (buffer salts and papain) and dried a second time in the oven at 37° C. […] Multiple formulation combinations of the DETECT components were examined to determine optimal change of reflectance over time.
# Excess solution is removed with glass rods and the paper placed in the oven and dried for 60 minutes at 37° C. In a dry room (relative humidity<20%), the dried filter paper is adhered onto a polyester film support. […] The order of applying the DETECT components typically includes adding the methanol soluble components first followed by the water-soluble components.
# Papain activity by cysteine activation was assessed by using two test strips where one received 100 μM cysteine (sample) while the other received buffer (control).
# In study 1, different formulations (i.e., different amounts of the papain and BAPA) were used to prepare strips to obtain the highest possible reflectance change when the yellow-colored signal is generated from activating papain (se FIG. 8) and measured with a Konica Minolta reflectance spectrophotometer. […]
# Study 1. […] The difference of percent reflectance (% Rscore) between sample and control is determined by subtracting the percent reflectance of the control strip from the sample strip for each time point to yield an increasing % Rscore over time (see FIG. 9A-B).
# recombinant CTX-M-15 = recombinant CTX-M-15 (Escherichia coli, UniProt Q9EXV5); experiment: Dry reagent test strip, Study 2: activation by recombinant CTX-M-15, reflectance; conditions: 1 or 4 nM CTX-M-15, read every 4 minutes for 20 minutes
# Sequence of recombinant CTX-M-15 (Q9EXV5 entry or part of it): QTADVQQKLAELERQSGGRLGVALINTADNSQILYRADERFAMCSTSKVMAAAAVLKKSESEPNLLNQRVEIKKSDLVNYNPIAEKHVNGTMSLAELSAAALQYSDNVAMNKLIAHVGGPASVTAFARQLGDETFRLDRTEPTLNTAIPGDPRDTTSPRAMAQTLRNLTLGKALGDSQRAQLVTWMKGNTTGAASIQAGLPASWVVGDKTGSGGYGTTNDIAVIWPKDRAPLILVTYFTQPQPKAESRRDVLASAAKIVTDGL
# Procedure: If the small molecule targeting probe was not severely affected by the fabrication process, then in the presence of CTX-M-15, it will be hydrolyzed and liberate the triggering unit to initiate the signaling cascade thus providing the yellow colorimetric response.
# The sample test strip received 1 or 4 nM of β-lactamase, while the control received buffer and the reflectance was monitored every 4 minutes for 20 minutes (see FIG. 8B).
Compound,extinction coefficient ([1]; absorbance wavelength of 570 nm),fluorescent quantum yield (ϕ) ([1]; in water),stability and promiscuity characteristics for rapidly detecting ceftriaxone non-susceptibility directly from urine [2],Stability k(hydro) [2],Sensitivity (ROC Curve Analyzed with CTX) [3],AUC (95% CI) (ROC Curve Analyzed with CTX) [3],Specificity (ROC Curve Analyzed with CTX) [3],stability of the probe to the test strip fabrication process (papain),detection of recombinant CTX-M-15 on test strip (change in reflectance) (recombinant CTX-M-15),extinction coefficient ([1]; absorbance wavelength of 405 nm)
O=c1ccc2nc3ccc(O)cc3oc-2c1 [resorufin],"56,000 M^1 cm^−1",0.74,–,–,–,–,–,–,–,–
"O=C(Cc1ccccc1)N[C@@H]1C(=O)N2C(C(=O)O)=C(CSc3ccccc3)CSC12 (stereo partly drawn) [Sub-1, (7R)-8-oxo-7-(2-phenylacetamido)-3-((phenylthio)methyl)-5-thia-1-azabicyclo[4.2.0]oct-2-ene-2-carboxylic acid, reference compound]",–,–,not adequate,0.0062 M/min,0.9206,0.7717,0.8125,–,–,–
"O=C(Cn1cnnn1)N[C@@H]1C(=O)N2C(C(=O)O)=C(CSc3ccccc3)CSC12 (stereo partly drawn) [BAD-5835, (7R)-7-(2-(1H-tetrazol-1-yl)acetamido)-8-oxo-3-((phenylthio)methyl)-5-thia-1-azabicyclo[4.2.0]oct-2-ene-2-carboxylic acid]",–,–,–,0.0044 M/min,0.8823,0.9586,0.9259,did NOT decompose; also recorded: did not show any sign of degradation,retained its ability to detect the presence of CTX-M-15; also recorded: significant change in reflectance,–
"O=C(Cc1cccnc1)N[C@@H]1C(=O)N2C(C(=O)O)=C(CSc3ccccc3)CSC12 (stereo partly drawn) [BAD-5627, (7R)-8-oxo-3-((phenylthio)methyl)-7-(2-(pyridin-3-yl)acetamido)-5-thia-1-azabicyclo[4.2.0]oct-2-ene-2-carboxylic acid]",–,–,–,0.00352 M/min,0.9275,0.9614,0.9259,–,–,–
"O=C(COc1ccccc1)N[C@@H]1C(=O)N2C(C(=O)O)=C(CSc3ccccc3)CSC12 (stereo partly drawn) [BAD-7465, (7R)-8-oxo-7-(2-phenoxyacetamido)-3-((phenylthio)methyl)-5-thia-1-azabicyclo[4.2.0]oct-2-ene-2-carboxylic acid]",–,–,–,0.00161 M/min,0.7143,0.7717,0.8077,–,–,–
"Cc1cc(C(=O)N[C@@H]2C(=O)N3C(C(=O)O)=C(CSc4ccccc4)CSC23)on1 (stereo partly drawn) [BAD-1468, (7R)-7-(3-methylisoxazole-5-carboxamido)-8-oxo-3-((phenylthio)methyl)-5-thia-1-azabicyclo[4.2.0]oct-2-ene-2-carboxylic acid]",–,–,–,0.00198 M/min,0.8406,0.8846,0.8519,–,–,–
Nc1ccc([N+](=O)[O-])cc1 [p-nitroaniline],–,–,–,–,–,–,–,–,–,"9,767 M-1 cm^−1"
"O=C(O)C1=C(CSc2ccccc2)CSC2[C@H](NC(=O)[C@H]3CCCNC3)C(=O)N12 (stereo partly drawn) [BAD-3462, (7R)-8-oxo-3-((phenylthio)methyl)-7-((S)-piperidine-3-carboxamido)-5-thia-1-azabicyclo[4.2.0]oct-2-ene-2-carboxylic acid]",–,–,–,0.00558 M/min,0.8116,0.8717,0.8519,–,–,–
